Patent publication US10766878B2, “Sulfonylcycloalkyl carboxamide compounds” (Genentech, Inc., priority 2017, dated 2020)

Target: human TRPA1 (Homo sapiens (Human), UniProt O75762)
Assay: hTRPA1 CHO Ca2+ AUC EVO (IC50); FLIPR Tetra block of cinnamaldehyde induced calcium influx
Format: cell-based
Conditions: CHO cells expressing TRPA1, 75 uM cinnamaldehyde agonist
Protocol: IC50 values ([…]) of compounds on the human and rat TRPA1 channels were determined using a FLIPR Tetra instrument. CHO cells expressing TRPA1 were plated into 384-well plates, incubated overnight at 37 C, and loaded with BD calcium indicator dye for 1 hr at 37° C. followed by 15 minutes. at room temperature. The assay buffer was Hank's Balanced Salt Solution (HBSS) containing 20 mM HEPES (pH readjusted to 7.4) along with 0.02% BSA.
Following dye load and plate cool down, compounds were added to the cells using FLIPR Tetra. Plates were then incubated with compounds for 20 minutes at room temperature prior to adding agonist. Following this incubation, ˜EC80 concentration of cinnamaldehyde (75 uM for human TRPA1 and 45 uM for rat TRPA1) was added to active the channels and block of cinnamaldehyde induced calcium influx was measured.
IC50 values were fit with a standard Hill function, keeping the Hill coefficient (n) fixed to 1.5. Fixing the Hill coefficient will generally reduce variability of the IC50 determination. The IC50 values were individually examined to make sure the MIN and MAX points were set correctly prior to validation of the results.

Sequence of human TRPA1 (O75762 whole entry): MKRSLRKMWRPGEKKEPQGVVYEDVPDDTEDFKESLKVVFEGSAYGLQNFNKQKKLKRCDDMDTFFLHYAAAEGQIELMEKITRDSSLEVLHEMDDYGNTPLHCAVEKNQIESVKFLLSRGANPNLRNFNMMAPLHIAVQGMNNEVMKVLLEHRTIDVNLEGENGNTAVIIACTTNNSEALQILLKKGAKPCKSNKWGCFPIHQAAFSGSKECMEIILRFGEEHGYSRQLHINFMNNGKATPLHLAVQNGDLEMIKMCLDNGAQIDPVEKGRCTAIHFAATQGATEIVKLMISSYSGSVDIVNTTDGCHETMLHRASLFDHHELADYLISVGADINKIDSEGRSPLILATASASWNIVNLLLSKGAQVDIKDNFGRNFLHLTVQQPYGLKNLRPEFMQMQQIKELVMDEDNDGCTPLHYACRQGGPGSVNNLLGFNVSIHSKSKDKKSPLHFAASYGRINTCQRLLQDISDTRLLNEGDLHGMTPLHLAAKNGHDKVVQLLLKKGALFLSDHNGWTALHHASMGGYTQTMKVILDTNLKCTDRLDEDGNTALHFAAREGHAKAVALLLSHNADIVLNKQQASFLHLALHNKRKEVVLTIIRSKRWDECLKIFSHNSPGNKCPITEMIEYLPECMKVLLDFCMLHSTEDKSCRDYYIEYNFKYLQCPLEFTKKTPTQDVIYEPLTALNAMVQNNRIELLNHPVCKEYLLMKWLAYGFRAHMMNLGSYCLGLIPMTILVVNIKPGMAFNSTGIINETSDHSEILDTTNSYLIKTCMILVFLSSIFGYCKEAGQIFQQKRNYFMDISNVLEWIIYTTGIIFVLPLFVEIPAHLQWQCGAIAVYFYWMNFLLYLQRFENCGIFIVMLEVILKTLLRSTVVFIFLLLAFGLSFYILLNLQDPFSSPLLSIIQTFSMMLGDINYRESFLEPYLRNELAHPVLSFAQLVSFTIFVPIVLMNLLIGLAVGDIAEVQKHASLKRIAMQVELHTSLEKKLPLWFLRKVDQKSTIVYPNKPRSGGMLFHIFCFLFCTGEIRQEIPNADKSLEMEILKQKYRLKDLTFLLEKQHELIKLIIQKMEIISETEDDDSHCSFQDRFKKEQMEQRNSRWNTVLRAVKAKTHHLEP

COc1nn(-c2ccc(C(F)(F)F)nc2)cc1CNC(=O)C1(C)CCCC1S(=O)(=O)c1ccc(F)cc1 (single isomer, unassigned; enantiomer 2) [Example 35, 2-(4-fluorophenylsulfonyl)-N-((3-methoxy-1-(6-(trifluoromethyl)pyridin-3-yl)-1H-pyrazol-4-yl)methyl)-1-methylcyclopentanecarboxamide (Enantiomer 2)]
IC50 (Table 3): 199 nM

CC1(C(=O)NCc2cn(-c3ccc(C(F)(F)F)cc3)nc2Cl)CCCC1S(=O)(=O)c1ccc(F)cc1 (single isomer, unassigned; enantiomer 3) [Example 38, N-((3-chloro-1-(4-(trifluoromethyl)phenyl)-1H-pyrazol-4-yl)methyl)-2-(4-fluorophenylsulfonyl)-1-methylcyclopentanecarboxamide (Enantiomer 3)]
IC50 (Table 1): 47.1 nM | IC50 (Table 3): 47.1 nM

O=C(NCc1cn(-c2ccc(C(F)(F)F)nc2)nc1C(F)(F)F)C1CCC1S(=O)(=O)c1ccc(F)cc1 (single isomer, unassigned; enantiomer 3) [Example 26, 2-(4-fluorophenylsulfonyl)-N-((3-(trifluoromethyl)-1-(6-(trifluoromethyl)pyridin-3-yl)-1H-pyrazol-4-yl)methyl) cyclobutanecarboxamide (Enantiomer 3)]
IC50 (Table 3): 90.2 nM

O=C(Cc1cn(-c2cnc(C(F)(F)F)nc2)nc1C(F)(F)F)N[C@@H]1CC[C@@H]1S(=O)(=O)c1ccc(F)cc1 [Example 3, N-((1R,2S)-2-(4-fluorophenylsulfonyl)cyclobutyl)-2-(3-(trifluoromethyl)-1-(2-(trifluoromethyl)pyrimidin-5-yl)-1H-pyrazol-4-yl)acetamide]
IC50 (Table 1): 7.88 nM | IC50 (Table 3): 7.88 nM

O=C(Cc1cn(-c2cnc(C(F)(F)F)nc2)nc1C(F)F)N[C@@H]1CC[C@@H]1S(=O)(=O)c1ccc(F)cc1 [Example 9, 2-(3-(difluoromethyl)-1-(2-(trifluoromethyl)pyrimidin-5-yl)-1H-pyrazol-4-yl)-N-((1R,2S)-2-(4-fluorophenylsulfonyl)cyclobutyl)acetamide]
IC50 (Table 1): 35.2 nM | IC50 (Table 3): 35.2 nM

CC1(C(=O)NCc2cn(-c3ccc(C(F)(F)F)cc3)nc2Cl)CCCC1S(=O)(=O)c1ccc(F)cc1 (single isomer, unassigned; enantiomer 2) [Example 37, N-((3-chloro-1-(4-(trifluoromethyl)phenyl)-1H-pyrazol-4-yl)methyl)-2-(4-fluorophenylsulfonyl)-1-methylcyclopentanecarboxamide (Enantiomer 2)]
IC50 (Table 1): 23.9 nM | IC50 (Table 3): 23.9 nM

O=C(Cc1cn(-c2cnc(C(F)(F)F)nc2)nc1C1CC1)N[C@@H]1CC[C@@H]1S(=O)(=O)c1ccc(F)cc1 [Example 6, 2-(3-cyclopropyl-1-(2-(trifluoromethyl)pyrimidin-5-yl)-1H-pyrazol-4-yl)-N-((1R,2S)-2-(4-fluorophenylsulfonyl)cyclobutyl)acetamide]
IC50 (Table 1): 46.9 nM | IC50 (Table 3): 46.9 nM

O=C(NCc1cn(-c2ccc(C(F)(F)F)nc2)nc1C(F)(F)F)[C@@H]1CC[C@@H]1S(=O)(=O)c1ccc(F)cc1 [Example 24, (1S,2S)-2-(4-fluorophenylsulfonyl)-N-((3-(trifluoromethyl)-1-(6-(trifluoromethyl)pyridin-3-yl)-1H-pyrazol-4-yl)methyl)cyclobutanecarboxamide]
IC50 (Table 1): 41.5 nM | IC50 (Table 3): 41.5 nM

O=C(NCc1cn(-c2ccc(C(F)(F)F)nc2)nc1C(F)(F)F)[C@@H]1CCC[C@@H]1S(=O)(=O)c1ccc(F)cc1 [Example 4, (1S,2S)-2-[(4-fluorobenzene)sulfonyl]-N-[[3-(trifluoromethyl)-1-[6-(trifluoromethyl)pyridin-3-yl]-1H-pyrazol-4-yl]methyl]cyclopentane-1-carboxamide]
IC50 (Table 3): 21.8 nM

COc1nn(-c2ccc(C(F)(F)F)nc2)cc1CNC(=O)C1(C)CCCC1S(=O)(=O)c1ccc(F)cc1 (single isomer, unassigned; enantiomer 3) [Example 36, 2-(4-fluorophenylsulfonyl)-N-((3-methoxy-1-(6-(trifluoromethyl)pyridin-3-yl)-1H-pyrazol-4-yl)methyl)-1-methylcyclopentanecarboxamide (Enantiomer 3)]
IC50 (Table 3): 62.2 nM

COc1nn(-c2ccc(C(F)(F)F)nc2)cc1CC(=O)NC1CCC1S(=O)(=O)c1ccc(F)cc1 (single isomer, unassigned; enantiomer 2) [Example 12, N-(2-((4-fluorophenyl)sulfonyl)cyclobutyl)-2-(3-methoxy-1-(6-(trifluoromethyl)pyridin-3-yl)-1H-pyrazol-4-yl)acetamide (Enantiomer 2)]
IC50 (Table 3): 213 nM

O=C(NCc1cn(-c2ccc(C(F)(F)F)cc2)nc1Cl)C1CCC1S(=O)(=O)c1ccc(F)cc1 (single isomer, unassigned; enantiomer 2) [Example 29, N-((3-chloro-1-(4-(trifluoromethyl)phenyl)-1H-pyrazol-4-yl)methyl)-2-(4-fluorophenylsulfonyl) cyclobutanecarboxamide (Enantiomer 2)]
IC50 (Table 3): 65.8 nM

O=C(NCc1ccc(F)c(-c2cnc(C(F)(F)F)nc2)c1)[C@@H]1CC[C@@H]1S(=O)(=O)c1ccc(F)cc1 [Example 19, (1S,2S)-2-(4-fluorophenyl)sulfonyl-N-[[4-fluoro-3-[2-(trifluoromethyl)pyrimidin-5-yl]phenyl]methyl] cyclobutanecarboxamide]
IC50 (Table 3): 159 nM

O=C(NCc1cn(-c2ccc(C(F)(F)F)cc2)nc1C(F)F)[C@@H]1CC[C@@H]1S(=O)(=O)c1ccc(F)cc1 [Example 17, (1S,2S)-N-((3-(difluoromethyl)-1-(4-(trifluoromethyl)phenyl)-1H-pyrazol-4-yl)methyl)-2-(4-fluorophenylsulfonyl) cyclobutanecarboxamide]
IC50 (Table 3): 24.2 nM

O=C(NCc1cc(-c2ccc(C(F)(F)F)cc2)ncn1)[C@@H]1CC[C@@H]1S(=O)(=O)c1ccc(F)cc1 [Example 27, (1S,2S)-2-(4-fluorophenylsulfonyl)-N-((6-(4-(trifluoromethyl)phenyl)pyrimidin-4-yl)methyl)cyclobutanecarboxamide]
IC50 (Table 3): 113 nM

O=C(NCc1cn(-c2ccc(C(F)(F)F)cc2)nc1C(F)F)[C@@H]1CC[C@@H]1S(=O)(=O)c1ccc(F)cc1 [Example 1, (1S,2S)-N-((3-(difluoromethyl)-1-(4-(trifluoromethyl)phenyl)-1H-pyrazol-4-yl)methyl)-2-(4-fluorophenylsulfonyl) cyclobutanecarboxamide]
IC50 (Table 3): 34.6 nM

O=C(Cc1cn(-c2cnc(C(F)(F)F)nc2)nc1C(F)(F)F)N[C@@H]1CC[C@@H]1[S+]([O-])c1ccc(F)cc1 (stereo partly drawn) [Example 2, N-((1R,2S)-2-(4-fluorophenylsulfinyl)cyclobutyl)-2-(3-(trifluoromethyl)-1-(2-(trifluoromethyl)pyrimidin-5-yl)-1H-pyrazol-4-yl)acetamide]
IC50 (Table 3): 500 nM

COc1nn(-c2ccc(C(F)F)cc2)cc1CC(=O)N[C@@H]1CC[C@@H]1S(=O)(=O)c1ccc(F)cc1 [Example 10, 2-(1-(4-(difluoromethyl)phenyl)-3-methoxy-1H-pyrazol-4-yl)-N-((1R,2S)-2-(4-fluorophenylsulfonyl)cyclobutyl) acetamide]
IC50 (Table 3): 43.6 nM

CC1(C(=O)NCc2cn(-c3ccc(C(F)(F)F)nc3)nc2Cl)CCCC1S(=O)(=O)c1ccc(F)cc1 (single isomer, unassigned; enantiomer 3) [Example 33, N-((3-chloro-1-(6-(trifluoromethyl)pyridin-3-yl)-1H-pyrazol-4-yl)methyl)-2-(4-fluorophenylsulfonyl)-1-methylcyclopentanecarboxamide (Enantiomer 3)]
IC50 (Table 3): 88.5 nM

COc1nn(-c2ccc(C(F)(F)F)cc2)cc1CNC(=O)C1CCC1(C)S(=O)(=O)c1ccc(F)cc1 (single isomer, unassigned; enantiomer 2) [Example 23, 2-(4-fluorophenylsulfonyl)-N-((3-methoxy-1-(4-(trifluoromethyl)phenyl)-1H-pyrazol-4-yl)methyl)-2-methylcyclobutanecarboxamide (Enantiomer 2)]
IC50 (Table 1): 38 nM | IC50 (Table 3): 38 nM

O=C(NCc1cn(-c2ccc(C(F)(F)F)nc2)nc1C(F)F)[C@@H]1CC[C@@H]1S(=O)(=O)c1ccc(F)cc1 [Example 20, (1S,2S)-N-((3-(difluoromethyl)-1-(6-(trifluoromethyl)pyridin-3-yl)-1H-pyrazol-4-yl)methyl)-2-((4-fluorophenyl)sulfonyl) cyclobutanecarboxamide]
IC50 (Table 3): 98.4 nM

CC1(C(=O)NCc2cn(-c3ccc(C(F)(F)F)cc3)nc2Cl)CCCC1S(=O)(=O)c1ccc(F)cc1 (single isomer, unassigned; enantiomer 1) [Example 5, N-((3-chloro-1-(4-(trifluoromethyl)phenyl)-1H-pyrazol-4-yl)methyl)-2-(4-fluorophenylsulfonyl)-1-methylcyclopentanecarboxamide (Enantiomer 1)]
IC50 (Table 1): 8.79 nM | IC50 (Table 3): 8.79 nM

O=C(NCc1cn(-c2ccc(C(F)(F)F)cc2)nc1C(F)F)C1CCC1S(=O)(=O)c1ccc(F)cc1 (single isomer, unassigned; enantiomer 2) [Example 18, N-((3-(difluoromethyl)-1-(4-(trifluoromethyl)phenyl)-1H-pyrazol-4-yl)methyl)-2-(4-fluorophenylsulfonyl) cyclobutanecarboxamide (Enantiomer 2)]
IC50 (Table 3): 96 nM
